This note sets out measurements from patent publication US20090311349A1, “METHOD OF QUANTIFICATION OF MULTIPLE BIOACTIVES FROM BOTANICAL COMPOSITIONS” (priority 2008, published 2009).

One series relates to uterine horn. As to the kind of experiment: Uterine horn mass, control vs DES vs MF101. Type of series: in vivo. The text has this: (§1) In a similar experiment, the effect of MF101 on breast cancer cells was compared to that of diethylstilbestrol (DES). […] FIGS. 3G and 3H show the effect of control, DES and MF101 on a breast cancer graft mass (FIG. 3G) and a uterine horn mass (FIG. 3H).

In the next series the test system is breast cancer graft. As to the kind of experiment: Breast cancer graft growth, control vs DES vs MF101. Type of series: in vivo.
From the text: as §1

In series [1] the test system is U2OS-ERβ cells. As to the kind of experiment: Affymetrix U95Av2 microarray, U2OS-ERβ cells. Type of series: cell-based, human. As for the experimental part: (§2) To identify genes regulated by ERα and/or ERβ, the U2OS-ERα and U2OS-ERβ cell lines were treated with doxycycline for 18 h in the absence or presence of 10 nM E2. Total RNA was used to prepare cRNA for hybridization with the human U95Av2 Affymetrix microarrays, which contain 12,600 known genes. Six sets of comparative expression data of untreated vs. each treated group were used to determine the genes regulated in ERα or ERβ cells.
(§3) Microarray data obtained from human Affymetrix U95Av2 gene chips from untreated vs. ligand-treated samples were analyzed using the Affymetrix Microarray Suite Version 5.0. Candidate genes displaying a statistically significant (p<0.05) increase or decrease signal changes relative to controls in at least three experiments were further selected by a ±0.8 signal log ratio mean cut-off. […] Fold-changes in the U2OS-ERα and U2OS-ERβ samples (in parentheses) were calculated relative to the untreated samples.

Series [2] concerns U2OS-ERα cells. Nature of the series: Affymetrix U95Av2 microarray, U2OS-ERα cells. Format: cell-based, human. As for the experimental part: as §2, §3
The test system of the next series is MCF-7 cells. Nature of the series: [3H] thymidine incorporation in adenovirus-infected MCF-7 cells. Format: cell-based, human. To be noted: presence of E2; 10 days. As for the experimental part:
To investigate the role of ERα in breast cancer, the effects of E2 on cell proliferation in MCF-7 cells that express only ERα were studied. […] (An, supra, 2001). […] To investigate the role of ERβ on the proliferation of breast cancer cells, an adenovirus (Ad) was used to deliver ERβ into a high percentage of cells. MCF-7 cells were infected for 24 h with Ad-ERβ or Ad-LacZ to control for potential non-specific effects of the virus. The infected cells were grown for 10 days in the absence or presence of E2, after which DNA synthesis was measured by [3H] thymidine incorporation in vitro. […] E2 augmented the inhibition of cell proliferation to 70% in the Ad-ERβ-infected cells. Similar results were observed using 100 multiplicity of infection (MOI) of Ad-ERβ. The observation that the inhibition of cell proliferation by ERβ was predominantly ligand-independent may result from residual E2 in stripped serum or retained in cells infected with ERβ, or unliganded properties of […].

Series [3] relates to U2OS-ERα and U2OS-ERβ cell lines. Nature of the series: Affymetrix U95Av2 microarray, both U2OS-ERα and U2OS-ERβ cell lines. Type of series: cell-based, human. To be noted: for genes Activated, α + β / genes Repressed, α + β: 10 nM E2 or 1 μM tamoxifen. As for the experimental part:
as §2, §3

For series [4], the system named is U2OS-ERβ cells. Nature of the series: Affymetrix U95Av2 microarray, U2OS-ERβ cells. Type of series: cell-based, human. To be noted: 1 μM raloxifene, 18 h.
Series [5] relates to U2OS-ERβ cells. The settings on record: 1 μM raloxifene, 18 h, relative to untreated.
The test system of series [6] is U2OS-ERα cells. To be noted: 1 μM raloxifene, 18 h, relative to untreated.
A further series has as its target T1, human ERβ (Homo sapiens, UniProt Q92731).
T1 construct: expressed in transfected cells; host or cells: U2OS osteosarcoma cells
Nature of the series: ERE-tk-Luc reporter activation in U2OS cells transfected with ERβ. To be noted: activation by MF101 (MF101 and estradiol). Type of series: cell-based.

Series [7] deals with U2OS-ERα and U2OS-ERβ cell lines. As to the kind of experiment: Affymetrix U95Av2 microarray, both U2OS-ERα and U2OS-ERβ cell lines. Type of series: cell-based, human.
The test system of series [8] is U2OS-ERα cells. Nature of the series: Affymetrix U95Av2 microarray, U2OS-ERα cells. To be noted: 1 μM raloxifene, 18 h. Format: cell-based, human.
The mark [9] stands for this setting: 10 nM E2, 1 μM raloxifene or 1 μM tamoxifen, 18 h.
Setting [10] is: 1 μM raloxifene or 1 μM tamoxifen, 18 h.

Structures are written as SMILES. Marks after values point to notes of the source that are not given here.

T1 sequence (Q92731 whole entry): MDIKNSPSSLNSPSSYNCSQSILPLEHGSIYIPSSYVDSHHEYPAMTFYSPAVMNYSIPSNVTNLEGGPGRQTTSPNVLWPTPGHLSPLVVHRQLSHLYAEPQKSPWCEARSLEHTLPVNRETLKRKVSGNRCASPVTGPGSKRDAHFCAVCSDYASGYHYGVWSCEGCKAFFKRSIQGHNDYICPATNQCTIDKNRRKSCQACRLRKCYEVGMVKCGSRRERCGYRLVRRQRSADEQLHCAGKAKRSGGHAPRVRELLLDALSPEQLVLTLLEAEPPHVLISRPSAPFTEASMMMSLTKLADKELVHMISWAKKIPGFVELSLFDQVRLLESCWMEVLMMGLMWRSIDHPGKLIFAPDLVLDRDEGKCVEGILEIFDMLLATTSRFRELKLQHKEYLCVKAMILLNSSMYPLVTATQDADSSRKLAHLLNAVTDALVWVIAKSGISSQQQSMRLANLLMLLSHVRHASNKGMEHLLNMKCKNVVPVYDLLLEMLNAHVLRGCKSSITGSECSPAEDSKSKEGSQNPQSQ

`CC/C(=C(/CC)c1ccc(O)cc1)c1ccc(O)cc1` [DES, diethylstilbestrol]: in the series with uterine horn, the “uterine horn growth (mass)” value was “substantial increase”. For the same compound, the “growth of xenograft (breast cancer graft mass)” value with breast cancer graft (vs control) is “substantial increase”. Besides, in the series on breast cancer graft (vs control-treated), the “proliferation of breast cancer cells (FIGS. 3D-3F)” value is listed as “proliferation-stimulating effect”.
For the compound `C[C@]12CC[C@@H]3c4ccc(O)cc4CC[C@H]3[C@@H]1CC[C@@H]2O` [estradiol], in the series with U2OS-ERβ cells [1] (10 nM E2), the “genes regulated only in the U2OS-ERβ cells” value turned out to be 125 genes. Moreover, in the series on U2OS-ERβ cells [1] (setting [9]), the “genes Activated, β only” value worked out at 87 genes and the “genes Repressed, β only” value is 38 genes. Moreover, in the series with U2OS-ERα cells [2] (10 nM E2), the “genes regulated only in the U2OS-ERα cells” value worked out at 65 genes. Also, in the series on U2OS-ERα cells [2] (setting [9]), the “genes Activated, α only” value was 33 genes and the “genes Repressed, α only” value is listed as 32 genes. For the same compound, in the series with MCF-7 cells, the “inhibition of cell proliferation in Ad-ERβ-infected MCF-7 cells” value stood at 70%. Moreover, the “share of genes regulated by both ERα and ERβ” value in series [3] (10 nM E2) came to 17%. Further, the “genes regulated in U2OSα and U2OSβ cell lines” value in series [3] (10 nM E2, 1 μM raloxifene or 1 μM tamoxifen, 18 h, p<0.05, listed as E2) came to 228 genes. Also, in series [3] (10 nM E2, of the 228), the “genes regulated by both ERα and ERβ” value came out at 38 genes. For the same compound, in series [3] (18 h), the “genes Activated, α + β” value was 34 genes and the “genes Repressed, α + β” value worked out at 4 genes.
Take `O=C(c1ccc(OCCN2CCCCC2)cc1)c1c(-c2ccc(O)cc2)sc2cc(O)ccc12` [raloxifene]: in the series on U2OS-ERβ cells [4], the “Mean signal log ratio ± S.E., NKG2C (β)” value is recorded as −5.20 ± 0.08. For the same compound, in the series on U2OS-ERβ cells [5], the “Fold-change by real-time PCR, NKG2C (β)” value worked out at 0.36 fold. In addition, the “Fold-change by real-time PCR, NKG2C (α)” value with U2OS-ERα cells [6] stood at 7.54 fold. In the series on U2OS-ERβ cells [1] (setting [9]), the “genes Activated, β only” value amounted to 52 genes; the “genes Activated, β only, relative percentage” value was “(27.4%)”; the “genes Repressed, β only” value was determined as 101 genes; the “genes Repressed, β only, relative percentage” value is “(53.2%)”. Moreover, in the series on U2OS-ERα cells [2] (setting [9]), the “genes Activated, α only” value turned out to be 10 genes; the “genes Activated, α only, relative percentage” value is “(5.3%)”; the “genes Repressed, α only” value is given as 10 genes; the “genes Repressed, α only, relative percentage” value is on record as “(5.3%)”. Further, the “blockade of ERE-tk-Luc activation through ERβ” value at human ERβ is given as “blocked”. Moreover, in series [7] (setting [10]), the “common genes with opposite expression patterns (*), relative percentage” value is reported as “(8.9%)” and the “common genes with opposite expression patterns in ERα compared to ERβ cells (*)” value was 17* genes. In the series with U2OS-ERα cells [8], the “Mean signal log ratio ± S.E., NKG2C (α)” value worked out at 2.40 ± 0.82.
With `CC/C(=C(\c1ccccc1)c1ccc(OCCN(C)C)cc1)c1ccccc1` [tamoxifen], in the series on U2OS-ERβ cells [1] (setting [9]), the “genes Activated, β only” value worked out at 26 genes and the “genes Repressed, β only” value is recorded as 129 genes. Further, in the series with U2OS-ERα cells [2] (setting [9]), the “genes Activated, α only” value is listed as 21 genes and the “genes Repressed, α only” value amounted to 38 genes. Moreover, the “share of genes regulated by tamoxifen also regulated by raloxifene” value in series [7] is listed as 27%. Besides, the “common genes with opposite expression patterns in ERα compared to ERβ cells (*)” value in [7] (setting [10]) is 12* genes. Besides, in [3] (18 h), the “genes Activated, α + β” value was determined as 1 genes and the “genes Repressed, α + β” value stood at 9 genes.
